According to patent publication US10501516B2, “Peptide compound” (TAKEDA PHARMACEUTICAL COMPANY LIMITED, priority 2016, dated 2019):
Square brackets hold non-standard residues; d marks the D form. Side chains are listed from the residue outwards. Peptide text beside a SMILES is read from it. * marks the point of attachment. C18 diacid = O=C(O)CCCCCCCCCCCCCCCCC(=O)*; NMeY = CN[C@@H](Cc1ccc(O)cc1)C(=O)O; Palmitoyl = CCCCCCCCCCCCCCCC(=O)*; αMeF = C[C@](N)(Cc1ccccc1)C(=O)O; Iva = CC[C@](C)(N)C(=O)O; Aib = CC(C)(N)C(=O)O

Key:
human GLP-1R = biological target: T1, human GLP-1R (Homo sapiens, UniProt P43220); experiment: Reporter assay of human GLP-1R gene (agonist activity, intracellular cAMP as index); format: cell-based; conditions: Cre-luc reporter, hGLP-1R/Crel cells (CHO-K1), 4 hours
T1 construct: expressed in transfected cells; host or cells: CHO-K1 Cre-luc reporter cells (hGLP-1R/Crel cells)
Excerpt: (§1) Evaluation of Agonist Activity Against Human NPY2R, Human GIPR, and Human GLP-1R Using Change in Intracellular cAMP Concentration as Index
The human GLP-1R gene having a sequence identical to the sequence of GenBank Accession No. NM_002062 was cloned into pIRESneo3 vector (Clontech Laboratories, Inc.) to prepare hGLP-1R/pIRESneo3. This vector was introduced to the Cre-luc reporter cells obtained in (1) to obtain transformants. Next, a cell line induced to express luciferase, i.e., hGLP-1R/Crel cells, were selected from the obtained transformants by the addition of human GLP-1(7-37) peptide.
(§2) The hGIPR/CRE-LUC/CHO-K1 cells or the hGLP-1R/Crel cells were inoculated at a cell density of 25 μL/well (5,000 cells/well) to a 384-well white plate (Corning, 3570), and cultured overnight in Ham F12 medium containing 10% fetal bovine serum, 100 U/mL penicillin and 100 μg/mL streptomycin in a CO2 incubator of 37° C. On the next day, a medium containing a test compound was added at a concentration of 5 μL/well to the cells, and the resultant cells were incubated for 4 hours in a CO2 incubator of 37° C. to give the final concentration of 1 μM. SteadyGlo (Promega) was added thereto at a concentration of 30 μL/well, and the mixture was shaken with light shielded. After 30 minutes, the luciferase activity was measured using a plate reader Envision (PerkinElmer). For the GIPR agonist activity, the luciferase activity in the presence of 10 μM GIP was defined as 100%, and the luciferase activity from the addition of DMSO instead of the test compound was defined as 0%. The GIPR agonist activity was calculated with a rise in intracellular cAMP concentration as an index.
For the GLP-1R agonist activity, assay similar to above was conducted using the hGLP-1R/Crel cells. The luciferase activity in the presence of 10 μM GLP-1 was defined as 100%, and the luciferase activity from the addition of DMSO instead of the test compound was defined as 0%. The GLP-1R agonist activity was calculated with a rise in intracellular cAMP concentration as an index.

human GIPR = biological target: T2, human GIPR (Homo sapiens, UniProt P48546); experiment: Reporter assay of human GIPR gene (agonist activity, intracellular cAMP as index); format: cell-based; conditions: Cre-luc reporter, hGIPR/CHO-K1 cells, 4 hours
T2 construct: expressed in transfected cells; host or cells: CHO-K1 Cre-luc reporter cells (hGIPR/CHO-K1, also called hGIPR/CRE-LUC/CHO-K1)
T2 sequence (P48546 22-466): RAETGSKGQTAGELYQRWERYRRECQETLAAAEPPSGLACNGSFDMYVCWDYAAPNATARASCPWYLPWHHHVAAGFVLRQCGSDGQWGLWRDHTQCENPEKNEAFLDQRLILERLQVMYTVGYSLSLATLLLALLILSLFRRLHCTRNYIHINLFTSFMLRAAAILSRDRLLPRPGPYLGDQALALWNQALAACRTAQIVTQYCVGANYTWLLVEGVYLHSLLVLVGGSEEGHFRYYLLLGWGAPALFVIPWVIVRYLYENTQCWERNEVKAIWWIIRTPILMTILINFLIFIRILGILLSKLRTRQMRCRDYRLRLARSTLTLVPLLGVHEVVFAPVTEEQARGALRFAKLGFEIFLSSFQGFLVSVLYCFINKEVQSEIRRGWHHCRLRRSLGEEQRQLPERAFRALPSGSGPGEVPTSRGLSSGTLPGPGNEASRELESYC
Excerpt: as §1
The human GIPR gene having a sequence identical to the sequence of GenBank Accession No. U39231 was cloned into pMSRα-neo vector to prepare hGIPR/pMSRα-neo. This vector was introduced to the Cre-luc reporter cells obtained in (1) to obtain transformants. Next, a cell line induced to express luciferase, i.e., hGIPR/CHO-K1 cells, were selected from the obtained transformants by the addition of GIP.
as §2

human NPY2R = biological target: T3, human NPY2R (Homo sapiens, UniProt P49146); experiment: Reporter assay of human NPY2R gene (agonist activity, decrease in intracellular cAMP as index); format: cell-based; conditions: Cre-luc reporter, hNPY2R CHO-K1 cells, forskolin 1.2 μM, 4 hours; read-out: Agonist activity (EC50) hY2R
T3 construct: expressed in transfected cells; host or cells: CHO-K1 Cre-luc reporter cells (pAKKO1114/hNPY2R#481 No. 88 cells)
T3 sequence (P49146 1-381): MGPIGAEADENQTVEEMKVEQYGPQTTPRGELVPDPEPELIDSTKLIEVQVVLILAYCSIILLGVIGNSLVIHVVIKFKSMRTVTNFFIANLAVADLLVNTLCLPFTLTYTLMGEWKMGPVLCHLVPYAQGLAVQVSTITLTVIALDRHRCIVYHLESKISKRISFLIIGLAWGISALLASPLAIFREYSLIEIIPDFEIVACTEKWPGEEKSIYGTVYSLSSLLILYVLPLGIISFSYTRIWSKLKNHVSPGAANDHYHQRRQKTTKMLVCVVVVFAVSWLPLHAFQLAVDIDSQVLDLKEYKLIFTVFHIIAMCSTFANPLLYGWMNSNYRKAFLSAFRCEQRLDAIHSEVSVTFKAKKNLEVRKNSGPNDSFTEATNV
Excerpt: as §1
The human NPY2R gene having a sequence identical to the sequence of GenBank Accession No. AC104407 was cloned into pAKKO1114 vector to prepare hNPY2R/pAKKO1114. Next, pGL4.29 (Promega) was introduced to CHO-K1 cells, which were then screened with hygromycin to construct Cre-luc reporter cells. These cells were cotransfected with hNPY2R/pAKKO1114 and pcDNA3.1 (Life Technologies Corp.), and the cells were screened with geneticin. Next, a cell line induced to express luciferase, i.e., pAKKO1114/hNPY2R#481 No. 88 cells, were selected from the obtained transformants by the addition of human PYY (3-36).
The pAKKO1114/hNPY2R#481 No. 88 cells were inoculated at a cell density of 25 μL/well (5,000 cells/well) to a 384-well white plate (Corning, 3570), and cultured overnight in Ham F12 medium containing 10% fetal bovine serum, 100 U/mL penicillin and 100 μg/mL streptomycin in a CO2 incubator of 37° C. On the next day, the medium was removed, and an assay medium (Ham F12 medium containing 0.1% BSA, 100 U/mL penicillin and 100 μg/mL streptomycin) containing forskolin (final concentration: 1.2 μM) was added at a concentration of 25 μL/well to the cells. Next, an assay medium containing a test compound was added at a concentration of 5 μL/well to the cells, and the resultant cells were incubated for 4 hours in a CO2 incubator of 37° C. to give the final concentration of 1 μM. SteadyGlo (Promega) was added thereto at a concentration of 30 μL/well, and the mixture was left standing for 20 minutes with light shielded. The luciferase activity was measured using a plate reader Envision (PerkinElmer). The luciferase activity from the addition of DMSO was defined as 100%, and the luciferase activity from the addition of 1 μM human PYY(3-36) instead of the test compound was defined as 0%. The NPY2R agonist activity was calculated with a decrease in intracellular cAMP concentration as an index.

Male C57BL/6J mice = experiment: Conditioned taste aversion (CTA) test; format: in vivo, mouse; conditions: 10 nmol/kg s.c.
Procedure: Male C57BL/6J (9 weeks old) mice were habituated to time-restricted bottled water supply (2-3 hours/day) and subcutaneous injection of saline for 1 week. Mice were divided into the groups based on the data of body weight and water intake. CTA test was performed according to the following protocol. On day 1 for the first conditioning, mice were given 0.1% sodium saccharin solution to drink for 3 hours. Ten-minutes after supplying the saccharin solution, vehicles, liraglutides and P41 were administered subcutaneously. […] On day 2, mice were given tap water for 3 hours and subcutaneous injection of saline after water supply. On day 3, the second conditioning was conducted as the same procedure used on day 1. On day 4, mice were given tap water for 3 hours without subcutaneous injection. On day 5, both tap water and saccharin solution were supplied to mice for 3 hours without subcutaneous injection and the intake of each fluid was measured. Saccharin preference ratio (%) was calculated according to the following equation: {(amount of saccharin intake)/(amount of saccharin intake+amount of water intake)}×100.

T1 sequence (P43220 24-463): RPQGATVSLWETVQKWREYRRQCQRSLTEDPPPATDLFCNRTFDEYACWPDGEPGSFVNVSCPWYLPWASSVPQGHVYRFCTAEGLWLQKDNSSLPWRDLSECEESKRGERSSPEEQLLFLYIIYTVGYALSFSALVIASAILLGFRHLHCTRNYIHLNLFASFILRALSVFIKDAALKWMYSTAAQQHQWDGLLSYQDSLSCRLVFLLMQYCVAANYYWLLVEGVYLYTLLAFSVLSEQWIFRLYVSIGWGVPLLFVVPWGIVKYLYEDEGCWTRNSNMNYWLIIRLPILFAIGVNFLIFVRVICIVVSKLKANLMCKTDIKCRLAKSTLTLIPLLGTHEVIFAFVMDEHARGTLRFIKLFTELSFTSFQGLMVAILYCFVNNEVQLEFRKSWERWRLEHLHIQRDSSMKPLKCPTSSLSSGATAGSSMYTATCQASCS

Row | Structure (SMILES) | EC50 (human GLP-1R) | EC50 (human GIPR) | EC50 (human NPY2R) | induction of conditioned taste aversion (emetic effects) (Male C57BL/6J mice)
1 | CCCCCCCCCCCCCCCC(=O)NCC(=O)NCC(=O)NCC(=O)NCC(=O)NCCCC[C@H](NC(=O)[C@H](CC(=O)O)NC(=O)[C@H](CO)NC(=O)[C@@H](NC(=O)[C@](C)(Cc1ccccc1)NC(=O)[C@@H](NC(=O)CNC(=O)[C@H](CCC(=O)O)NC(=O)C(C)(C)NC(=O)[C@@H](N)Cc1ccc(O)cc1)[C@@H](C)O)[C@@H](C)O)C(=O)N[C@@H](CO)C(=O)N[C@@H](CCCCN)C(=O)NC(C)(C)C(=O)N[C@@H](CC(C)C)C(=O)N[C@@H](CC(=O)O)C(=O)N[C@@H](CCCCN)C(=O)N[C@@H](CCC(N)=O)C(=O)N[C@@H](CCCNC(=N)N)C(=O)N[C@@H](CCC(N)=O)C(=O)N[C@@](C)(CC)C(=O)N[C@@H](CCC(=O)O)C(=O)N[C@@H](Cc1ccccc1)C(=O)N[C@H](C(=O)N[C@@H](CCCNC(=N)N)C(=O)N[C@@H](Cc1c[nH]cn1)C(=O)N[C@@H](CC(C)C)C(=O)N[C@@H](CC(C)C)C(=O)N[C@@H](CC(N)=O)C(=O)N[C@@H](CCCCN)C(=O)NC(C)(C)C(=O)N[C@H](C(=O)N[C@@H](CCCNC(=N)N)C(=O)N[C@@H](CCC(N)=O)C(=O)N[C@@H](CCCNC(=N)N)C(=O)N[C@@H](Cc1ccc(O)cc1)C(N)=O)[C@@H](C)O)C(C)C [Example 23] (H-Y[Aib]EGT[αMeF]TSDK([Gly-Gly-Gly-Gly-Palmitoyl])SK[Aib]LDKQRQ[Iva]EFVRHLLNK[Aib]TRQRY-NH2) | 0.13 nM | 0.091 nM | – | –
2 | CC[C@H](C)[C@H](NC(=O)[C@H](CO)NC(=O)[C@H](CCCCNC(=O)CNC(=O)CNC(=O)CNC(=O)CNC(=O)CCCCCCCCCCCCCCCCC(=O)O)NC(=O)[C@H](CC(=O)O)NC(=O)[C@H](CO)NC(=O)[C@@H](NC(=O)[C@](C)(Cc1ccccc1)NC(=O)[C@@H](NC(=O)CNC(=O)[C@H](CCC(=O)O)NC(=O)C(C)(C)NC(=O)[C@H](Cc1ccc(O)cc1)NC)[C@@H](C)O)[C@@H](C)O)C(=O)NC(C)(C)C(=O)N[C@@H](CC(C)C)C(=O)N[C@@H](CCC(=O)O)C(=O)N[C@@H](CCCCN)C(=O)N[C@@H](CCC(N)=O)C(=O)N[C@@H](CCCNC(=N)N)C(=O)N[C@@H](CCC(N)=O)C(=O)N[C@@](C)(CC)C(=O)N[C@@H](CCC(=O)O)C(=O)N[C@@H](Cc1ccccc1)C(=O)N[C@H](C(=O)N[C@@H](CCCNC(=N)N)C(=O)N[C@@H](Cc1c[nH]cn1)C(=O)N[C@@H](CC(C)C)C(=O)N[C@@H](CC(C)C)C(=O)N[C@@H](CC(N)=O)C(=O)N[C@@H](CCCCN)C(=O)NC(C)(C)C(=O)N[C@H](C(=O)N[C@@H](CCCNC(=N)N)C(=O)N[C@@H](CCC(N)=O)C(=O)N[C@@H](CCCNC(=N)N)C(=O)N[C@@H](Cc1ccc(O)cc1)C(N)=O)[C@@H](C)O)C(C)C [Example 42] (H-[NMeY][Aib]EGT[αMeF]TSDK([Gly-Gly-Gly-Gly-C18 diacid])SI[Aib]LEKQRQ[Iva]EFVRHLLNK[Aib]TRQRY-NH2) | 1.3 nM | 0.25 nM | 2.6 nM | –
3 | CCCCCCCCCCCCCCCC(=O)N[C@@H](CCC(=O)NCCCC[C@H](NC(=O)[C@H](C)NC(=O)[C@H](C)NC(=O)[C@H](CCC(N)=O)NC(=O)CNC(=O)[C@H](CCC(=O)O)NC(=O)[C@H](CC(C)C)NC(=O)[C@H](Cc1ccc(O)cc1)NC(=O)[C@H](CO)NC(=O)[C@H](CO)NC(=O)[C@@H](NC(=O)[C@H](CC(=O)O)NC(=O)[C@H](CO)NC(=O)[C@@H](NC(=O)[C@H](Cc1ccccc1)NC(=O)[C@@H](NC(=O)CNC(=O)[C@H](CCC(=O)O)NC(=O)[C@H](C)NC(=O)[C@@H](N)Cc1cnc[nH]1)[C@@H](C)O)[C@@H](C)O)C(C)C)C(=O)N[C@@H](CCC(=O)O)C(=O)N[C@@H](Cc1ccccc1)C(=O)N[C@H](C(=O)N[C@@H](C)C(=O)N[C@@H](Cc1c[nH]c2ccccc12)C(=O)N[C@@H](CC(C)C)C(=O)N[C@H](C(=O)N[C@@H](CCCNC(=N)N)C(=O)NCC(=O)N[C@@H](CCCNC(=N)N)C(=O)NCC(=O)O)C(C)C)[C@@H](C)CC)C(=O)O [Liraglutide, liraglutide, reference compound] | – | – | – | significantly decreased saccharin preference ratio
